Laboratory results from article PMC6683251, “Flavanol Bioavailability in Two Cocoa Products with Different Phenolic Content. A Comparative Study in Humans” (Nutrients, 2019).
Values joined by “and” are separate entries in the source; they are usually repeats but may differ in a detail not shown here. Equal values may be shown once. Read-outs that look alike come from different tables or passages of the source.

Key:
[1] = Urinary excretion of flavanol metabolites (0-24 h) after a single serving of soluble cocoa product (HPLC-ESI-QToF-MS); format: in vivo, human; details: mean ± SD, n = 13; for Excreted in urine, Total: 24 h urine; for Excreted in urine, Basal: basal urine (−2–0 h, before intake)
Description: They were non-smoker, non-vegetarian, non-pregnant women, who were not taking any medication or nutritional supplements, and were not suffering from any chronic pathology or gastrointestinal disorder. The sample size was estimated attending to similar previous bioavailability studies. The volunteers gave their informed consent prior to participation.
(§1) The present randomized, single-blind study was carried out at the Human Nutrition Unit (HNU) of the Institute of Food Science, Technology and Nutrition (ICTAN). Volunteers attended the HNU on two days, separated by two weeks. Three days previous to each visit, participants were instructed not to consume cocoa products (chocolate, soluble cocoa, etc.), juices, tea, wine, grape must, oranges, tangerines, apples, grapes, strawberries or other berries, beets, onions, soybeans and soy derivatives.
On each intervention day, volunteers arrived at the HNU after an overnight fast. […] The soluble cocoa products, either 15 g of CC or 25 g CC-PP, were dissolved in 200 mL of semi-skimmed milk following manufacturer’s preparation instructions. Plasma was separated by centrifugation (10 min, 3000 rpm, 4 °C) and stored at −80 °C until further analysis. […] A polyphenol-free breakfast, lunch and afternoon snack were provided 2 h, 4 h, and 8 h after consumption of cocoa products, and water and isotonic beverages were available ad libitum.
Urine samples were diluted with an equivalent volume of Milli-Q water (50%) and centrifuged at 14000 rpm (10 min, 4 °C). Supernatants were filtered (0.45 μm pore-size cellulose-acetate membrane filters) and a 5 µL aliquot was directly injected into the LC-ESI-QToF-MS equipment.
The test samples, either 30 μL of the plasma extract or 5 μL of diluted urine, were injected and separated using a mobile phase consisting of Milli-Q water (phase A) and acetonitrile (phase B), both containing 0.1% formic acid, at a flow rate of 0.3 mL/min. The mobile phase was initially programmed with 90% of solvent A and 10% of B. The elution program increased to 30% of solvent B in 10 min. Then, the initial conditions (10% solvent B) were recovered in 5 min and maintained for 5 min.
Due to the lack of standards for certain phase II metabolites, they were tentatively quantified using the calibration curves of their corresponding phenolic precursors. […] The rest of microbial metabolites identified, derivatives of hydroxyphenylpropionic, hydroxyphenylacetic, hydroxybenzoic and hippuric acids, were quantified using their respective commercially available standards. Urine concentration of the excreted metabolites was normalized by the volume excreted in each studied interval. […] Calibration curves were freshly prepared in a pool of both plasma and urine due to matrix effects.
Statistical analyses were carried out using the program SPSS (version 23.0, SPSS, Inc., IBM Company, New York, NY, USA). Significant differences between metabolites excreted in urine after consumption of CC and CC-PP cocoa products were evaluated based on non-parametric Wilcoxon test (p < 0.05). To determine the absorption and elimination of epicatechin metabolites after consumption of the soluble cocoa products, metabolite nutrikinetics were studied using the pharmacokinetic functions of Microsoft Excel, calculating the maximum concentration (Cmax), area under curve (AUC) and time to reach maximum concentration (Tmax). Data are expressed as mean ± standard deviation.

[2] = Plasma nutrikinetics of flavanol metabolites after a single serving of soluble cocoa product (HPLC-ESI-QToF-MS); format: in vivo, human; details: for AUC: human plasma 0-8 h; for AUC / Tmax / Cmax: mean ± SD, n = 13; for Tmax / Cmax: human plasma; for Detection of un-metabolized compound in the collected biological fluids: plasma and urine, CC and CC-PP
Description: The study was carried out in thirteen healthy subjects (3 men and 10 women); the mens’ average age and body mass index were 26.67 ± 3.21 year and 22.47 ± 2.97 kg/m^2, respectively, and womens’ were 32.60 ± 9.85 year and 23.36 ± 3.73 kg/m^2, respectively. They were non-smoker, non-vegetarian, non-pregnant women, who were not taking any medication or nutritional supplements, and were not suffering from any chronic pathology or gastrointestinal disorder. The sample size was estimated attending to similar previous bioavailability studies. The volunteers gave their informed consent prior to participation.
as §1, with “derivatives. In addition, volunteers were asked to complete a 24 h food intake recall the day before they attended the HNU in order to monitor any possible food restriction incompliance.” for “derivatives.”
On each intervention day, volunteers arrived at the HNU after an overnight fast. Prior to the intake of the soluble cocoa product, a nurse inserted a cannula in the cubital vein of the non-prevailing arm of the volunteers and blood samples were collected into EDTA-coated tubes at baseline (t = 0) and 0.5, 1, 2, 3, 4, 6, and 8 h after consuming the corresponding cocoa product. The soluble cocoa products, either 15 g of CC or 25 g CC-PP, were dissolved in 200 mL of semi-skimmed milk following manufacturer’s preparation instructions. Plasma was separated by centrifugation (10 min, 3000 rpm, 4 °C) and stored at −80 °C until further analysis. Urine samples were collected at different time intervals (t = −2–0, 0–4, 4–8, 8–12, and 12–24 h) in urine collection flasks that contained 0.5 g of ascorbic acid as preservative and were aliquoted and frozen at −20 °C until analysis. A polyphenol-free breakfast, lunch and afternoon snack were provided 2 h, 4 h, and 8 h after consumption of cocoa products, and water and isotonic beverages were available ad libitum.
A liquid–liquid extraction and protein precipitation with acetonitrile was used to isolate metabolites from plasma. A 1 mL defrosted plasma sample was mixed with 50 μL of ascorbic acid (0.2 g/mL). After vortexing the aqueous mixture, it was added drop wise to 750 μL of cold acetonitrile and vortexed for 2 min before centrifuging at 12,000 rpm for 10 min at 4 °C. The supernatant was separated, and the pellet was re-extracted twice more following the same procedure. Supernatants were combined and reduced to dryness under a stream of nitrogen at 30 °C. The dried samples were resuspended in 150 μL of aqueous formic acid (0.1%) containing 10% acetonitrile acidified with 0.1% formic acid and centrifuged at 4 °C for 20 min at 14,000 rpm. The final supernatant was collected, filtered (0.45 μm pore-size, cellulose-acetate membrane filters, Albet, Dassel (Germany)) and 30 μL were analyzed by high-performance liquid chromatography coupled to electrospray ionisation and quadrupole time-of-flight mass spectrometry (HPLC-ESI-QToF-MS).
Analyses were performed on an Agilent 1200 series LC system coupled to an Agilent 6530A Accurate-Mass Quadrupole Time-Of-Flight (Q-ToF) with ESI-Jet Stream Technology (Agilent Technologies). Compounds were separated on a reverse-phase Ascentis Express C18 (15 cm × 3 mm, […]) column (Sigma-Aldrich Química, Madrid) preceded by a Supelco 55215-U guard column at 30 °C. […]

[3] = after CC-PP (68.25 mg flavanols)
[4] = both sexes, oral, 19.8 mg, after CC (19.80 mg flavanols), read-out: Tmax
[5] = both sexes, oral, after CC-PP (68.25 mg flavanols), read-out: AUC
[6] = both sexes, oral, after CC-PP (68.25 mg flavanols), read-out: Tmax
[7] = both sexes, oral, after CC-PP (25 g in 200 mL semi-skimmed milk, 68.25 mg flavanols), read-out: Cmax

Compound	Excreted in urine, Total ([1]; after CC (19.80 mg flavanols))	Excreted in urine, 0–4 h ([1]; after CC (19.80 mg flavanols))	Excreted in urine, 4–8 h ([1]; after CC (19.80 mg flavanols))	Excreted in urine, 8–12 h ([1]; after CC (19.80 mg flavanols))	Excreted in urine, 12–24 h ([1]; after CC (19.80 mg flavanols))	Excreted in urine, Total [1, 3]	Excreted in urine, 0–4 h [1, 3]	Excreted in urine, 4–8 h [1, 3]	Excreted in urine, 8–12 h [1, 3]	Excreted in urine, 12–24 h [1, 3]	further results
O=S(=O)(O)Oc1cc([C@H]2Oc3cc(O)cc(O)c3C[C@H]2O)ccc1O [Epicatechin-3′-sulfate]	2.417 ± 0.439 µmol	1.323 ± 0.236 µmol	1.018 ± 0.178 µmol	0.076 ± 0.025 µmol	<L.Q.	7.357 ± 1.523 µmol	3.627 ± 0.797 µmol	3.572 ± 0.662 µmol	0.158 ± 0.038 µmol	<L.Q.	AUC ([2]; both sexes, oral, 19.8 mg, after CC (19.80 mg flavanols), read-out: AUC): 101 ± 23 nM·h; Tmax [2, 4]: 1 ± 0.1 h; AUC [2, 5]: 109 ± 76 nM·h; Cmax ([2]; both sexes, oral, after CC (15 g in 200 mL semi-skimmed milk, 19.80 mg flavanols), read-out: Cmax): 0.026 ± 0.003 µM; Tmax [2, 6]: 1.2 ± 0.5 h; Cmax [2, 7]: 0.042 ± 0.004 µM
O=C1CCC(Cc2cccc(OS(=O)(=O)O)c2)O1 (stereo not shown) [PVL-3′-sulfate, 5-Phenyl-γ-valerolactone-3′-sulfate]	1.691 ± 0.802 µmol	<L.Q.	0.860 ± 0.385 µmol	0.456 ± 0.284 µmol	0.375 ± 0.133 µmol	7.8 µmol and 7.752 ± 2.868 µmol	0.651 ± 0.389 µmol	4.188 ± 1.535 µmol	1.223 ± 0.373 µmol	1.690 ± 0.572 µmol	Excreted in urine, Basal ([1]; CC intervention): <L.Q.; Excreted in urine, Basal ([1]; CC-PP intervention): <L.Q.; Tmax [2, 4]: 4 to 6 h; AUC [2, 5]: 161 ± 105 nM·h; Tmax [2, 6]: 5.2 ± 2.2 h; Cmax [2, 7]: 0.039 ± 0.014 µM; Cmax ([2]; after CC (15 g in 200 mL semi-skimmed milk, 19.80 mg flavanols)): traces level
O.Oc1cc(O)c2c(c1)O[C@H](c1ccc(O)c(O)c1)[C@@H](O)C2 [catechin]											Detection of un-metabolized compound in the collected biological fluids [2]: Neither un-metabolized epicatechin and catechin nor procyanidins B1 and B2 were detected
O=C(O)CCC(O)Cc1ccc(O)c(O)c1 (stereo not shown) [HDHPVA, 4-Hydroxy-5-(3′,4′-dihydroxyphenyl)valeric acid]	<L.Q.		<L.Q.	<L.Q.	<L.Q.	<L.Q.	<L.Q.	<L.Q.	<L.Q.	<L.Q.	
4-Hydroxy-5-(hydroxyphenyl)valeric acid-glucuronide [HHPVA-glucuronide]						1.052 ± 0.182 µmol	<L.Q.	0.714 ± 0.088 µmol	0.087 ± 0.019 µmol	0.251 ± 0.075 µmol	
Oc1cc(O)c2c(c1)O[C@H](c1ccc(O)c(O)c1)[C@H](O)[C@H]2c1c(O)cc(O)c2c1O[C@H](c1ccc(O)c(O)c1)[C@@H](O)C2 [procyanidins B1, procyanidin B1]											Detection of un-metabolized compound in the collected biological fluids [2]: Neither un-metabolized epicatechin and catechin nor procyanidins B1 and B2 were detected
5-Phenyl-γ-valerolactone-methoxy-glucuronide [PVL-methoxy-glucuronide]											AUC ([2]; after CC (19.80 mg flavanols)): 0.078 ± 0.032; AUC [2, 3]: 0.091 ± 0.059; Tmax ([2]; after CC (19.80 mg flavanols)): 5.3 ± 1.0 h; Cmax ([2]; after CC (15 g in 200 mL semi-skimmed milk, 19.80 mg flavanols), read-out: Cmax): 0.022 ± 0.001 µM; Tmax [2, 3]: 5.6 ± 1.3 h; Cmax ([2]; after CC-PP (25 g in 200 mL semi-skimmed milk, 68.25 mg flavanols), read-out: Cmax): 0.027 ± 0.003 µM
O=C(O)c1ccc(O)c(O)c1 [Protocatechuic acid, 3,4-Dihydroxybenzoic acid]	0.959 ± 0.217 µmol	0.227 ± 0.142 µmol	0.373 ± 0.237 µmol	0.094 ± 0.047 µmol	0.104 ± 0.044 µmol	0.528 ± 0.105 µmol	0.105 ± 0.016 µmol	0.113 ± 0.020 µmol	0.095 ± 0.040 µmol	0.127 ± 0.015 µmol	Excreted in urine, Basal ([1]; CC intervention): 0.161 ± 0.071 µmol; Excreted in urine, Basal ([1]; CC-PP intervention): 0.088 ± 0.014 µmol
O=C1CCC(Cc2cccc(O)c2)O1 (stereo not shown) [HPVL, 5-(3′-Hydroxyphenyl)-γ-valerolactone]	<L.Q. *		<L.Q.	<L.Q.	<L.Q.	0.104 ± 0.041 µmol	<L.Q.	0.104 ± 0.041 µmol	<L.Q.	<L.Q.	
